One may read the IC50 as the concentration that inhibits the measured activity by half.

Positions of bridges follow the written chain, without caps; N, C: chain ends. Non-standard residues stand in square brackets, D forms with d. Residues, ends and D or L forms follow the SMILES beside them. Phe(F5) = N[C@@H](Cc1c(F)c(F)c(F)c(F)c1F)C(=O)O; Bip = N[C@@H](Cc1ccc(-c2ccccc2)cc1)C(=O)O; dDip = N[C@@H](C(=O)O)C(c1ccccc1)c1ccccc1; Dip = N[C@H](C(=O)O)C(c1ccccc1)c1ccccc1; Phe(4-F) = N[C@@H](Cc1ccc(F)cc1)C(=O)O; dPhe(4-F) = N[C@H](Cc1ccc(F)cc1)C(=O)O; 2Nal = N[C@@H](Cc1ccc2ccccc2c1)C(=O)O; Phe(2-F) = N[C@@H](Cc1ccccc1F)C(=O)O; Bta = N[C@@H](Cc1csc2ccccc12)C(=O)O; Igl = N[C@H](C(=O)O)C1Cc2ccccc2C1; 2Pal = N[C@@H](Cc1ccccn1)C(=O)O; 3Pal = N[C@@H](Cc1cccnc1)C(=O)O; Tle = CC(C)(C)[C@H](N)C(=O)O

The first assay concerns rat pituitary cells. In kind it is cell-based. Particulars: 3 h. From the text: Bioassay on the In Vitro Release of Growth Hormone
(a) Rat Pituitary Cell Dispersion
Pituitaries from adult Charles River CD male rats (Wilmington, Mass.) housed under controlled conditions were dispersed and cultured using aseptic technique by modification of previously described methods (Hoefer, M. T., et al., Mol. Cell. Endocrinol. 35:229 (1984); Ben-Jonathan, N., et al., Methods Enzymol. 103:249 (1983); and Heiman, M. L., et al., Endocrinology 116:410 (1985)). Pituitaries were removed from sacrificed rats, sectioned, and then placed into a siliconized, liquid scintillation vial containing 2 ml 0.2% trypsin (Worthington Biochemicals, Freehold, N.J.) in sterile-filtered Krebs-Ringer bicarbonate buffer supplemented with 1% bovine serum albumin, 14 mM glucose, modified Eagle medium (MEM) vitamin solution, and MEM amino acids (Gibco Laboratories, Grand Island, N.Y.) (KRBGA). All glassware was siliconized as described by Sayers, et al., Endocrinology 88:1063 (1971). The fragments were incubated in a water bath for 35 min at 37° C. with agitation. The vial contents then were poured into a scintillation vial containing 2 ml 0.1% DNase (Sigma Chemical Co., St. Louis, Mo.) in KRBGA and incubated for 2 min at 37° C. with agitation. After incubation, the tissue was decanted into a 15 ml centrifuge tube and allowed to settle. Medium was discarded, and pituitary sections were washed 3 times with 1 ml fresh-KRBGA. The cells were then dispersed in 2 ml 0.05% LBI (lima bean trypsin inhibitor, Worthington Biochemicals) by gently drawing the fragments into and expelling them out of a siliconized, fire polished Pasteur pipette. Dispersed cells were then filtered through a 630 μm diameter Nylon mesh (Tetko, Elmsford, N.Y.) into a fresh 15 ml centrifuge tube. An additional 2 ml of 0.05% LBI solution was used to rinse the first tube and was transferred to the second tube with filtering.
The dispersed cells were then further diluted with approximately 15 ml sterile-filtered Dulbecco's modified Eagle medium (GIBCO), which was supplemented with 2.5% fetal calf serum (GIBCO), 3% horse serum (GIBCO), 10% fresh rat serum (stored on ice for no longer than 1 hr) from the pituitary donors, 1% MEM non-essential amino acids (GIBCO), and gentamycin (10 ng/ml; Sigma) and nystatin (10,000 U/ml; GIBCO). The cells were poured into a 50 ml round-bottomed glass extraction flask with a large diameter opening and then randomly plated at a density of approximately 200,000 cells per well (Co-star cluster 24; Rochester Scientific Co., Rochester, N.Y.). The plated cells were maintained in the above Dulbecco's medium in a humidified atmosphere of 95% air and 5% CO2 at 37° C. for 4-5 days.
(c) Experimental Incubation and IC50 Determination
In preparation for a hormone challenge, the cells were washed 3 times with medium 199 (GIBCO) to remove old medium and floating cells. Each treatment well contained a total volume of 1 ml medium 199 containing 1% BSA (fraction V; Sigma) with treatments as described below. Each antagonist candidate was tested using a single 24-well cell culture plate. Each treatment was performed in triplicate. Each plate contained 8 treatment groups: one 1 nM growth hormone releasing factor (GRF) (1-29)NH2-stimulated control group; one 1 nM somatostatin-inhibited control group in the presence of 1 nM GRF(1-29)NH2; and 6 doses of a given antagonist in the presence of both 1 nM SRIF and 1 nM GRF per plate. After 3 hrs at 37° C. in a air/carbon dioxide atmosphere (95/5%), the medium was removed and stored at −20° C. until radioimmunoassayed for growth hormone content. IC50's of each antagonist versus 1 nM SRIF were calculated using a computer program (SigmaPlot, Jandel Scientific, San Rafael, Calif.) with the maximum response constrained to the value of the 1 nM GRF(1-29)NH2-stimulated control.
`CC[C@H](C)[C@@H]1NC(=O)[C@H](CCCCN)NC(=O)[C@@H](Cc2c[nH]c3ccccc23)NC(=O)[C@H](Cc2cccnc2)NC(=O)[C@H](NC(=O)[C@@H](N)Cc2ccc3ccccc3c2)CSSC[C@@H](C(=O)N[C@@H](Cc2ccc3ccccc3c2)C(N)=O)NC1=O` [Analog No. 32, H2-β-Nal-D-Cys-Pal-D-Trp-Lys-Ile-Cys-β-Nal-NH4] (H-[2Nal][dC][3Pal][dW]KIC[2Nal]-NH2; disulfide 2-7) yielded an IC50 of 12 nM. On the same count and under the same terms, in the case of `CC(C)[C@@H]1NC(=O)[C@H](CCCCN)NC(=O)[C@@H](Cc2c[nH]c3ccccc23)NC(=O)[C@H](Cc2cccnc2)NC(=O)[C@H](NC(=O)[C@@H](N)Cc2ccc3ccccc3c2)CSSC[C@@H](C(=O)N[C@@H](C(N)=O)C(c2ccccc2)c2ccccc2)NC1=O` [Analog No. 45, H2-β-Nal-D-Cys-Pal-D-Trp-Lys-Val-Cys-D-Dip-NH2] (H-[2Nal][dC][3Pal][dW]KVC[dDip]-NH2; disulfide 2-7) it was 130 nM; in that of `CC(C)[C@@H]1NC(=O)[C@H](CCCCN)NC(=O)[C@@H](Cc2c[nH]c3ccccc23)NC(=O)[C@H](Cc2cccnc2)NC(=O)[C@H](NC(=O)[C@@H](N)Cc2ccccc2F)CSSC[C@@H](C(=O)N[C@@H](Cc2ccccc2F)C(N)=O)NC1=O` [Analog No. 15, H2-o-F-Phe-D-Cys-Pal-D-Trp-Lys-Val-Cys-o-F-Phe-NH2] (H-[Phe(2-F)][dC][3Pal][dW]KVC[Phe(2-F)]-NH2; disulfide 2-7), 140 nM; in that of `CC(C)[C@@H]1NC(=O)[C@H](CCCCN)NC(=O)[C@@H](Cc2c[nH]c3ccccc23)NC(=O)[C@H](Cc2cccnc2)NC(=O)[C@H](NC(=O)[C@@H](N)Cc2c(F)c(F)c(F)c(F)c2F)CSSC[C@@H](C(=O)N[C@@H](Cc2c(F)c(F)c(F)c(F)c2F)C(N)=O)NC1=O` [Analog No. 16, H2—F5-Phe-D-Cys-Pal-D-Trp-Lys-Val-Cys-F5-Phe-NH2] (H-[Phe(F5)][dC][3Pal][dW]KVC[Phe(F5)]-NH2; disulfide 2-7), 820 nM.

`CC(C)(C)[C@@H]1NC(=O)[C@H](CCCCN)NC(=O)[C@@H](Cc2c[nH]c3ccccc23)NC(=O)[C@H](Cc2cccnc2)NC(=O)[C@H](NC(=O)[C@@H](N)Cc2ccc(F)cc2)CSSC[C@@H](C(=O)N[C@@H](Cc2ccc3ccccc3c2)C(N)=O)NC1=O` [Analog No. 50, H2-p-F-Phe-D-Cys-Pal-D-Trp-Lys-Tle-Cys-β-Nal-NH2] (H-[Phe(4-F)][dC][3Pal][dW]K[Tle]C[2Nal]-NH2; disulfide 2-7) displayed an IC50 of 1.1 nM. Molecule `CC[C@H](C)[C@@H]1NC(=O)[C@H](CCCCN)NC(=O)[C@@H](Cc2c[nH]c3ccccc23)NC(=O)[C@H](Cc2ccc(O)cc2)NC(=O)[C@H](NC(=O)[C@@H](N)Cc2ccc(-c3ccccc3)cc2)CSSC[C@@H](C(=O)N[C@@H](Cc2ccc(-c3ccccc3)cc2)C(N)=O)NC1=O` [Analog No. 36, H2-Bip-D-Cys-Tyr-D-Trp-Lys-Ile-Cys-Bip-NH2] (H-[Bip][dC]Y[dW]KIC[Bip]-NH2; disulfide 2-7) returned a concentration for half-maximal inhibition (IC50) of 1030 nM.

Molecule `CC(C)(C)[C@@H]1NC(=O)[C@H](CCCCN)NC(=O)[C@@H](Cc2c[nH]c3ccccc23)NC(=O)[C@H](Cc2cccnc2)NC(=O)[C@H](NC(=O)[C@H](N)Cc2ccc(F)cc2)CSSC[C@@H](C(=O)N[C@@H](Cc2ccc3ccccc3c2)C(N)=O)NC1=O` [Analog No. 51, H2-D-p-F-Phe-D-Cys-Pal-D-Trp-Lys-Tle-Cys-β-Nal-NH2] (H-[dPhe(4-F)][dC][3Pal][dW]K[Tle]C[2Nal]-NH2; disulfide 2-7) showed an IC50 of 12 nM. `CC(C)[C@@H]1NC(=O)[C@H](CCCCN)NC(=O)[C@@H](Cc2c[nH]c3ccccc23)NC(=O)[C@H](Cc2cccnc2)NC(=O)[C@H](NC(=O)[C@@H](N)Cc2ccc3ccccc3c2)CSSC[C@@H](C(=O)N[C@@H](Cc2ccc3ccccc3c2)C(N)=O)NC1=O` [Analog No. 3, H2-β-Nal-D-Cys-Pal-D-Trp-Lys-Val-Cys-β-Nal-NH2] (H-[2Nal][dC][3Pal][dW]KVC[2Nal]-NH2; disulfide 2-7) showed an IC50 of 10 nM. The same measure, in the same setting: as for `CC(C)[C@@H]1NC(=O)[C@H](CCCCN)NC(=O)[C@@H](Cc2c[nH]c3ccccc23)NC(=O)[C@H](Cc2ccccn2)NC(=O)[C@H](NC(=O)[C@@H](N)Cc2c(F)c(F)c(F)c(F)c2F)CSSC[C@@H](C(=O)N[C@@H](Cc2c(F)c(F)c(F)c(F)c2F)C(N)=O)NC1=O` [Analog No. 17, H2—F5-Phe-D-Cys-2-Pal-D-Trp-Lys-Val-Cys-F5-Phe-NH2] (H-[Phe(F5)][dC][2Pal][dW]KVC[Phe(F5)]-NH2; disulfide 2-7), the figure is 1000 nM; as for `C[C@@H]1NC(=O)[C@H](CCCCN)NC(=O)[C@@H](Cc2c[nH]c3ccccc23)NC(=O)[C@H](Cc2cccnc2)NC(=O)[C@H](NC(=O)[C@@H](N)Cc2ccc3ccccc3c2)CSSC[C@@H](C(=O)N[C@@H](Cc2ccc3ccccc3c2)C(N)=O)NC1=O` [Analog No. 34, H2-β-Nal-D-Cys-Pal-D-Trp-Lys-Ala-Cys-β-Nal-NH2] (H-[2Nal][dC][3Pal][dW]KAC[2Nal]-NH2; disulfide 2-7), 420 nM.

As to `CC(C)[C@@H]1NC(=O)[C@H](CCCCN)NC(=O)[C@@H](Cc2c[nH]c3ccccc23)NC(=O)[C@H](Cc2cccnc2)NC(=O)[C@H](NC(=O)[C@H](N)C(c2ccccc2)c2ccccc2)CSSC[C@@H](C(=O)N[C@@H](Cc2ccc3ccccc3c2)C(N)=O)NC1=O` [Analog No. 18, H2-D-Dip-D-Cys-Pal-D-Trp-Lys-Val-Cys-β-Nal-NH2] (H-[dDip][dC][3Pal][dW]KVC[2Nal]-NH2; disulfide 2-7), it took 380 nM to reach half-maximal inhibition (IC50). In the case of `CC(C)[C@@H]1NC(=O)[C@H](CCCCN)NC(=O)[C@@H](Cc2c[nH]c3ccccc23)NC(=O)[C@H](Cc2csc3ccccc23)NC(=O)[C@H](NC(=O)[C@@H](N)Cc2ccc3ccccc3c2)CSSC[C@@H](C(=O)N[C@@H](Cc2ccc3ccccc3c2)C(N)=O)NC1=O` [Analog No. 49, H2-β-Nal-D-Cys-Bta-D-Trp-Lys-Val-Cys-β-Nal-NH2] (H-[2Nal][dC][Bta][dW]KVC[2Nal]-NH2; disulfide 2-7), the 50% inhibitory concentration (IC50) amounted to 230 nM. With `CC(C)[C@@H]1NC(=O)[C@H](CCCCN)NC(=O)[C@@H](Cc2c[nH]c3ccccc23)NC(=O)[C@H](Cc2c[nH]cn2)NC(=O)[C@H](NC(=O)[C@@H](N)C(c2ccccc2)c2ccccc2)CSSC[C@@H](C(=O)N[C@H](C(N)=O)C(c2ccccc2)c2ccccc2)NC1=O` [Analog No. 21, H2-Dip-D-Cys-His-D-Trp-Lys-Val-Cys-Dip-NH2] (H-[Dip][dC]H[dW]KVC[Dip]-NH2; disulfide 2-7), the IC50 turned out to be 970 nM. On the same count and under the same terms, as for `CC(C)[C@@H]1NC(=O)[C@H](CCCCN)NC(=O)[C@@H](Cc2c[nH]c3ccccc23)NC(=O)[C@H](Cc2cccnc2)NC(=O)[C@H](NC(=O)[C@@H](N)C2Cc3ccccc3C2)CSSC[C@@H](C(=O)N[C@H](C(N)=O)C2Cc3ccccc3C2)NC1=O` [Analog No. 44, H2-Igl-D-Cys-Pal-D-Trp-Lys-Val-Cys-Igl-NH2] (H-[Igl][dC][3Pal][dW]KVC[Igl]-NH2; disulfide 2-7), the figure is 21 nM.

The same assay, now with this note: cultured rat pituitary cells; 1 nM SRIF and 1 nM GRF(1-29)NH2; 3 hrs at 37° C.; growth hormone by radioimmunoassay; read-out: IC50 of antagonist versus 1 nM SRIF (growth hormone release).
On to `CC(C)[C@@H]1NC(=O)[C@H](CCCCN)NC(=O)[C@@H](Cc2c[nH]c3ccccc23)NC(=O)[C@H](Cc2ccc(O)cc2)NC(=O)[C@H](NC(=O)[C@@H](N)Cc2ccc3ccccc3c2)CSSC[C@@H](C(=O)N[C@@H](Cc2ccc3ccccc3c2)C(N)=O)NC1=O` [Analog No. 2, H2-β-Nal-D-Cys-Tyr-D-Trp-Lys-Val-Cys-β-Nal-NH2] (H-[2Nal][dC]Y[dW]KVC[2Nal]-NH2; disulfide 2-7), for which the IC50 stood at 40 nM.

These data come from patent US9133262B2, “Somatostatin antagonists” (Ipsen Pharma S.A.S., priority 1996, dated 2015).
